Consider 87 molecules from a melting point compilation (Tetko et al.; mined from patent text by program, amines drawn as free bases though some values may be those of a salt).

The term melting point denotes the temperature, or range, at which the solid turns liquid.

Some results are limits rather than exact numbers.

The molecule `O=C1Nc2ccccc2C12COc1cc(F)c(F)cc12` (configuration not stated) gave a melting point of more than 200 °C.
For `COc1ccc(NC2=NN(c3cccnc3)CC2)cc1`, the melting point lay in the range of 116 to 119 °C.
The result for `CC(C)(C)c1cc(C(=O)c2ccccc2C(=O)O)cc(C(C)(C)C)c1O` reads 173 to 174 °C.
To `CS(=O)(=O)Cc1cc(C(=O)C=NCCCCCCN=CC(=O)c2ccc(OCc3ccccc3)c(CS(C)(=O)=O)c2)ccc1OCc1ccccc1` belongs 162 to 163 °C; to `OC1CC2OCCN3CCC4c5ccccc5N1C4C23` (configuration not stated), 180 °C; to `CC(C)(O)c1cccc(-c2ccc3nc(-c4ccc(Cl)cc4)c(Cl)n3c2)c1`, 172 to 173 °C.
Turning to `CCN1c2ncccc2C(=O)Nc2c(C)cc(N3CCCCC3CCO)nc21` (configuration not stated), the melting point lay within 234 to 237 °C.
`CCCCCCCCCCCC(=O)OCc1ccccc1-c1nc(-c2cccc(OC)c2)n[nH]1` gave a melting point of 45 °C.
`COC(=O)c1c(C(F)F)nc(C(F)(F)F)c(-n2cccc2)c1C1CCC1` returned a melting point of 70 to 71 °C.
As to `O=C(NCCCO)c1ccnc2ccccc12`, the melting point lay within 201 to 202 °C.
Molecule `CCCc1c(OCC2COc3c(F)cc(CC(=O)O)cc32)ccc(C(C)=O)c1O` (configuration not stated) displayed a melting point of 133 to 135 °C.
Molecule `Clc1cc(Cl)c(CBr)c(Cl)c1` had a melting point of 51 to 52 °C.
The result for `CC(C)(C(=O)c1cccnc1)c1ccc(Cl)cc1Cl` reads 103 to 104 °C; that for `CCC(=O)OCCN1CCc2cc(Nc3ncc(Cl)c(Nc4ccccc4S(=O)(=O)N(C)C)n3)c(OC)cc2CC1`, 40 °C; that for `COc1ccc(OC)c2c1[C@H](C=O)c1ccccc1[C@@H]2C=O`, 129 to 132 °C.
To `COC1C(NC(=O)C(F)(F)F)CC(OC2CC(O)(CO)Cc3c(O)c4c(c(O)c32)C(=O)c2ccccc2C4=O)OC1C` (configuration not stated) belongs 262 to 263 °C; to `CC(C)CN1CCC(CNC(=O)c2cc(Cl)c(N)[nH]c2=O)CC1`, 128 to 133 °C.
In the case of `COc1ccc(S(=O)(=O)C2(CCCC#Cc3cccc(N)c3)SC(=O)NC2=O)cc1` (configuration not stated), the melting point fell in the range of 135 to 138 °C.
The result for `Cc1oc(-c2ccccc2)nc1COc1ccc(CCCO)cn1` reads 89 to 90 °C; that for `CN(C)Cc1ccc(CSCCNC2=NS(=O)(=O)N=C2N2CCCC2)o1`, 151 to 152 °C; that for `COC(=O)/C=C(\C)c1ccc(OCc2nc(-c3ccccc3)oc2C)cc1`, 125 to 126 °C.
To `CC(C)NC(=O)c1cc(N(C)C)cc(Oc2cccc(C(F)(F)F)c2)n1` belongs 108 to 110 °C; to `O=C(NCCO)c1cccc(-c2cccc3nn(Cc4cc(F)cc(Cl)c4)cc23)c1`, 188 to 189 °C; to `NC(=O)c1ccc2c(c1)C(=O)c1ccccc1C2=O`, 299 °C.
The result for `Cc1nc2cccc(F)c2c(=O)n1C1CCC(=O)NC1=O` (configuration not stated) reads 275 to 277 °C.
Molecule `COC(=O)C(C)c1ccc2cc(OC(=O)CO)ccc2c1` (configuration not stated) came in with a melting point of 49.5 to 52 °C.
The result for `C=CCOc1ccccc1C1C(C(=O)OCC)=C(C)NC(C=O)=C1C(=O)OCC` (configuration not stated) reads 129 to 131 °C; that for `CCc1nc2c(-c3c(C)cc(C)cc3C)ncnc2n1Cc1ccccc1`, 121 to 122 °C; that for `CCSc1ccc(CC(=O)NC(NC(Cc2ccccc2C)=NC#N)C(C)(C)C)cc1` (configuration not stated), 196 to 198 °C.
The result for `CC(C)(C)OC(=O)CN(C(=O)CN1C(=O)c2ccccc2C1=O)c1ccccc1Cc1ccccc1` reads 190 °C; that for `CCC(=NO)c1cc(Br)c(O)c(CN)c1`, 174 to 175 °C; that for `CC(=O)C1C(=O)N(C(=O)Nc2ccc(F)cc2)c2ccccc21` (configuration not stated), 181 to 182 °C.
The result for `O=c1n(Cc2ccccc2)nc2n1C=Cc1ccccc1C2` reads 133 to 134 °C; that for `CC(=O)OCCCCN(C)CCCN(C)C(=O)[C@@H]1CCCN1S(=O)(=O)c1ccc(Cl)c(COc2cccc3c(-n4ccnc4)cc(C)nc23)c1Cl`, 88 °C.
`CCOP(=O)(/C=C\c1cnc(-c2ccccc2)nc1OCc1ccc(OCc2nc(-c3ccco3)oc2C)c(OC)c1)OCC`: the melting point was in the range of 103 to 104 °C.
To `O=C(O)Cc1ccc2c(c1)C(=O)Cc1ccccc1C2` belongs 171 to 173 °C; to `Cc1ccc2c(c1)C(c1cn(C)c(=O)[nH]c1=S)c1nc(C)oc1C=C2` (configuration not stated), 238 to 240 °C.
The molecule `C=CCN(Cc1cc(Br)ccc1OCc1ccccc1)c1ccc(C(=O)O)nn1` returned a melting point of 135 to 136 °C.
To `CCn1c(-c2c(Cl)cccc2Cl)nc(-c2ccnc(Cl)c2)c1-c1ccc(Cl)cc1` belongs 187 to 189 °C; to `O=C1c2ccccc2C(=O)N1CC1CCc2cccnc2O1` (configuration not stated), 152 to 158 °C; to `C#CCOC(=O)c1ccc(O)cc1`, 82 to 84 °C.
`Cc1c(C)c(N2CCN(c3ccc(CN)cc3)CC2)c(C)c2c1OC(C)(C)C2`: the melting point is 156 to 158 °C.
`COc1ccc2c(c1N)CN(S(C)(=O)=O)CC(=O)N2` yielded a melting point of 232 to 233 °C.
The result for `O=C(NC1CC1)c1cn2c(NCCCCCCNS(=O)(=O)c3ccccc3[N+](=O)[O-])nsc2n1` reads 170 to 171 °C; that for `N#Cc1cccc(-c2nc(N3CCC(CC(=O)O)CC3)cc3cccnc23)c1`, 178 to 180 °C.
To `Cc1cc([N+](=O)[O-])c(NCC(C)O)c([N+](=O)[O-])c1` (configuration not stated) belongs 80 °C.
`COc1ccccc1C1CC=NN1C(=O)c1cccnc1` (configuration not stated) showed a melting point of 93 to 95 °C.
The result for `O=C(C(=O)N(CC(F)(F)F)S(=O)(=O)C(F)(F)F)N(CC(F)(F)F)S(=O)(=O)C(F)(F)F` reads 43 to 45 °C; that for `CNC(=O)C1=C(OC(C)C)c2cc(OC)ccc2S1=O` (configuration not stated), 123 to 124 °C; that for `COc1cc(NC(=O)C(C#N)=CNc2ccc(Br)c(OC)c2)c(Cl)cc1Cl`, more than 250 °C.
To `COc1ccc(-n2nc(Sc3ccc(S(C)=O)cc3)c(C)c(C#N)c2=O)cc1` (configuration not stated) belongs 176 to 178 °C; to `COc1ccc(CN2C(=O)CNS2(=O)=O)cc1`, 111 to 113 °C; to `CC(C)n1nc(-c2cnc(N)nc2-c2cccs2)ccc1=O`, 213 °C.
The result for `Nc1ccccc1NC(=O)c1ccc(NC(=O)CO)cc1` reads 221 to 223 °C; that for `O=C1c2cc(Br)ccc2CCc2ccc(S(=O)(=O)F)cc21`, 148 to 151 °C; that for `Cc1ccc(C(=O)O)c(NS(C)(=O)=O)c1`, 202 to 205 °C.
`COc1cccc2c1nc(C(F)F)n2-c1nc(C2CCCN(C(=O)OC(C)(C)C)C2)nc(N2CCOCC2)n1` (configuration not stated): the melting point is 200 to 202 °C.
To `CCOC(=O)NC(=S)SCC` belongs 60 °C; to `CC(C)(CO)c1ccc(C(=O)Nc2cn3cc(C(F)(F)F)ccc3n2)cc1`, 227 to 229 °C; to `Cn1cc(C(=O)O)cc1C(=O)c1ccccc1`, 210 to 212 °C.
To `CC(C)(C)NCCOP1Oc2c(cc(C(C)(C)C)cc2C(C)(C)C)Cc2cc(C(C)(C)C)cc(C(C)(C)C)c2O1` belongs 189 to 192 °C; to `CN1CCN(c2cccc3c2C[C@H](NC(=O)c2ccc(OS(C)(=O)=O)cc2)CC3)CC1`, 199 to 200 °C; to `O=C(O)c1ccccc1Oc1ccc(Br)cc1[N+](=O)[O-]`, 136 to 138 °C.
`CC(=O)N1CCOc2ccc(C3=NNC(=O)CC3C)cc21` (configuration not stated) came in with a melting point of 186 °C.
The result for `CCCCCCCCCCNC(=O)C=Cc1cccc(NC(=O)/C=C\C(=O)O)c1` reads 187 to 188 °C.
`O=[N+]([O-])c1cc(C(F)(F)F)c(Cl)c([N+](=O)[O-])c1Nc1cc(C(F)(F)F)cc(C(F)(F)F)n1` displayed a melting point of 169 to 170 °C.
Molecule `Nc1nc(O)c2c(CCCc3ccc(C(=O)N[C@@H](CCC(=O)O)C(=O)O)cc3)cnc-2[nH]1` yielded a melting point of 190 to 193 °C.
For `Cc1ccc2c(c1)N(CC(=O)c1ccccc1C)C(=O)C(NC(=O)Nc1cccc(C(=O)O)c1)CN2C(=O)C(C)C` (configuration not stated), the melting point lay within 162 to 165 °C.
`CCn1cc(C(=O)NO)c(=O)c2ccc(-c3ccncc3)cc21` registered a melting point of 245 °C.
The result for `O=c1[nH]ccc2c1ccn2-c1ccc(C(F)(F)F)cc1Cl` reads 233 to 235 °C.
Regarding `COc1ccc(-c2cc3ccccc3[nH]2)cc1OC`, the melting point came to 188 °C.
To `CCCCCc1ncc([C@H]2CC[C@H](CCC)CC2)cn1` belongs 33 °C.
As for `CC(C)(COc1ccccc1C1NC(C(=O)O)CS1)CO[N+](=O)[O-]` (configuration not stated), the melting point fell in the range of 105 to 108 °C.
The result for `COc1ccc(C(=O)Nc2nc(-c3ccccc3)c(-c3ccc(=O)n(C(C)C)n3)s2)cc1` reads 219 to 221 °C.
As to `c1ccc(OCCCN2CCC(CNc3nc4ccccc4s3)CC2)cc1`, the melting point worked out at 114 °C.
The result for `Cc1ccc(C#N)c(Nc2ccccc2[N+](=O)[O-])c1` reads 162 to 164 °C; that for `C=C1SC(=O)N(c2ccc3cc(-c4ccc(O)c(C56CC7CC(CC(C7)C5)C6)c4)ccc3c2)C1=O`, 299 to 302 °C.
To `Cc1cc(=O)c2c(o1)CCOC2` belongs 107 to 110 °C.
`COc1cc(Cl)c(CCNCC(O)c2ccccc2)cc1OC` (configuration not stated): the melting point was 110 to 113 °C.
To `CN(C)C1(C#N)CCC(c2ccccc2)(N(C)C)CC1` (configuration not stated) belongs 82 to 92 °C; to `O=C(O)c1cn(C2CCCCC2)c2c(F)c(F)c(F)cc2c1=O`, 261 to 264 °C.
For `CC(=O)C(C)(O)c1ccc(O)cc1` (configuration not stated), the melting point lay within 101 to 102 °C.
With `CCCCCC1C=CC(c2ccc(F)c(F)c2)=CC1` (configuration not stated), the melting point was 31 °C.
To `COc1ccnc(N2CCC3(CCCN(Cc4c[nH]c5ccccc45)C3=O)CC2)n1` belongs 190 to 191 °C; to `O=C(NCc1ccc(Cl)cc1)c1cn(CC2CCCO2)c2sc(CN3CCOCC3)cc2c1=O` (configuration not stated), 191 to 195 °C; to `COc1cc2nc(C(N)=O)sc2cc1OC`, 211 to 212 °C.
To `CS(=O)(=O)Nn1c(=O)[nH]c2cc([N+](=O)[O-])c(-n3cnc(CO)c3)cc2c1=O` belongs more than 300 °C.
